The supplement of paper PMC8967900
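Also: ALL cell lines in 384-well plates, five doses spanning 10,000-fold, each plate scaled between vehicle and 100 µmol/L benzalkonium chloride controls, sDSS an adapted area-under-curve metric.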

Each compound was assayed on SUP-B15 (assay: selective drug sensitivity score (sDSS, relative to normal bone marrow) (sDSS (score)); higher = more potent and effective on the cell line relative to normal bone marrow cells). Details: 72 h.
`Oc1ncnc2[nH]ncc12` [Allopurinol] (top concentration 10000 nM) was tested, and the “selective drug sensitivity score” value was 0.36. In the case of `CC(C)n1cnc2c(NCCc3ccc(O)cc3)nc(-c3csc4ccccc34)nc21` [StemRegenin_1] (top concentration 10000 nM), the “selective drug sensitivity score” value is reported as -0.2. For `C#Cc1cccc(Nc2ncnc3cc4c(cc23)OCCOCCOCCO4)c1` [Icotinib] (top concentration 10000 nM), the “selective drug sensitivity score” value was 1.2. For `CN[C@@H](C)C(=O)N[C@H]1CN(C(=O)CC(C)C)CC[C@H]2CC[C@@H](C(=O)NC(c3ccccc3)c3ccccc3)N2C1=O` [AT-406] (top concentration 10000 nM), the “selective drug sensitivity score” value was -1.26. With `CC(C)(O)CC(=O)NCCn1ccc2ncnc(Nc3ccc(Oc4cccc(C(F)(F)F)c4)c(Cl)c3)c21` [TAK-285] (top concentration 2500 nM) the “selective drug sensitivity score” value was 0. In the case of `COc1cc(C)[nH]c(=O)c1CNC(=O)c1c(C)n([C@H](C)C2CCOCC2)c2ccccc12` [CPI-360] (top concentration 10000 nM), the “selective drug sensitivity score” value is reported as 0. For `Cc1cc2c(C(=O)NC[C@H](C)c3ccccc3)c(O)c(O)cc2c(O)c1-c1c(C)cc2c(C(=O)NC[C@H](C)c3ccccc3)c(O)c(O)cc2c1O` [Sabutoclax] (top concentration 25000 nM), the “selective drug sensitivity score” value was 16. With `CC(C)(C)C[C@@H]1N[C@@H](C(=O)N[C@H]2CC[C@H](O)CC2)[C@H](c2cccc(Cl)c2F)[C@]12C(=O)Nc1cc(Cl)ccc12` (top concentration 10000 nM) the “selective drug sensitivity score” value was 20.4. `C[C@@H]1C[C@H]2[C@@H]3CCC4=CC(=O)C=C[C@]4(C)[C@@]3(F)[C@@H](O)C[C@]2(C)[C@@]1(O)C(=O)CO` [Dexamethasone] (top concentration 10000 nM) was tested, and the “selective drug sensitivity score” value was 43.

The compounds below were run on TANOUE in the same assay as above. Details: 72 h.
For `Nc1nc2cc(-c3ccc4ncc(C(=O)N5CCOCC5)n4c3)ccc2o1` [Serabelisib] (top concentration 10000 nM), the “selective drug sensitivity score” value was -1.54. `COc1cccc(-c2ccc(NC(=O)C3=C(C(=O)O)CCC3)c(F)c2)c1` [Vidofludimus] (top concentration 10000 nM) was tested, and the “selective drug sensitivity score” value was 3. In the case of `Cc1cccc(-c2nn3c(c2-c2ccnc4ccc(C(N)=O)cc24)CCC3)n1` [Galunisertib] (top concentration 1000 nM), the “selective drug sensitivity score” value is reported as 0. In the case of `COc1cc2c(N3CCN(C(=O)Nc4ccc(OC(C)C)cc4)CC3)ncnc2cc1OCCCN1CCCCC1` [Tandutinib] (top concentration 1000 nM), the “selective drug sensitivity score” value is reported as 0. In the case of `Cc1c(F)cc(C(=O)NC2CC2)cc1-c1ccc(C(=O)NCC(C)(C)C)cn1` [Losmapimod] (top concentration 10000 nM), the “selective drug sensitivity score” value is reported as 1.32. `Nc1nc(N)c2nc(-c3cccc(O)c3)c(-c3cccc(O)c3)nc2n1` [TG100-115] (top concentration 10000 nM) was tested, and the “selective drug sensitivity score” value was -0.4. In the case of `C[C@]12CC[C@@H]3c4ccc(O)cc4C[C@@H](CCCCCCCCC[S+]([O-])CCCC(F)(F)C(F)(F)F)[C@H]3[C@@H]1CC[C@@H]2O` (stereo not given in full) [Fulvestrant] (top concentration 1000 nM), the “selective drug sensitivity score” value is reported as 0. `O=C(Nc1cccnc1)N1CCC(Cc2cccc(Oc3ccc(C(F)(F)F)cn3)c2)CC1` [PF-3845] (top concentration 10000 nM) was tested, and the “selective drug sensitivity score” value was 3.66. In the case of `COc1cc2c(cc1OCCCN1CCCC1)N=C(N)C21CCC1` [A-366] (top concentration 25000 nM), the “selective drug sensitivity score” value is reported as -1.84. `Oc1ncnc2[nH]ncc12` [Allopurinol] (top concentration 10000 nM) was tested, and the “selective drug sensitivity score” value was -0.64. For `CC(C)n1cnc2c(NCCc3ccc(O)cc3)nc(-c3csc4ccccc34)nc21` [StemRegenin_1] (top concentration 10000 nM), the “selective drug sensitivity score” value was 4.2. In the case of `C#Cc1cccc(Nc2ncnc3cc4c(cc23)OCCOCCOCCO4)c1` [Icotinib] (top concentration 10000 nM), the “selective drug sensitivity score” value is reported as 0. `CN[C@@H](C)C(=O)N[C@H]1CN(C(=O)CC(C)C)CC[C@H]2CC[C@@H](C(=O)NC(c3ccccc3)c3ccccc3)N2C1=O` [AT-406] (top concentration 10000 nM) was tested, and the “selective drug sensitivity score” value was -1.26. For `CC(C)(O)CC(=O)NCCn1ccc2ncnc(Nc3ccc(Oc4cccc(C(F)(F)F)c4)c(Cl)c3)c21` [TAK-285] (top concentration 2500 nM), the “selective drug sensitivity score” value was 0. For `COc1cc(C)[nH]c(=O)c1CNC(=O)c1c(C)n([C@H](C)C2CCOCC2)c2ccccc12` [CPI-360] (top concentration 10000 nM), the “selective drug sensitivity score” value was 0. In the case of `Cc1cc2c(C(=O)NC[C@H](C)c3ccccc3)c(O)c(O)cc2c(O)c1-c1c(C)cc2c(C(=O)NC[C@H](C)c3ccccc3)c(O)c(O)cc2c1O` [Sabutoclax] (top concentration 25000 nM), the “selective drug sensitivity score” value is reported as 2.98. `CC(C)(C)C[C@@H]1N[C@@H](C(=O)N[C@H]2CC[C@H](O)CC2)[C@H](c2cccc(Cl)c2F)[C@]12C(=O)Nc1cc(Cl)ccc12` (top concentration 10000 nM) was tested, and the “selective drug sensitivity score” value was -7.84. With `C[C@@H]1C[C@H]2[C@@H]3CCC4=CC(=O)C=C[C@]4(C)[C@@]3(F)[C@@H](O)C[C@]2(C)[C@@]1(O)C(=O)CO` [Dexamethasone] (top concentration 10000 nM) the “selective drug sensitivity score” value was -1.42.

What follows are compounds tested on TMD5 in the same assay as above. Details: 72 h.
`Nc1nc2cc(-c3ccc4ncc(C(=O)N5CCOCC5)n4c3)ccc2o1` [Serabelisib] (top concentration 10000 nM) was tested, and the “selective drug sensitivity score” value was -1.54. For `COc1cccc(-c2ccc(NC(=O)C3=C(C(=O)O)CCC3)c(F)c2)c1` [Vidofludimus] (top concentration 10000 nM), the “selective drug sensitivity score” value was 0. `Cc1cccc(-c2nn3c(c2-c2ccnc4ccc(C(N)=O)cc24)CCC3)n1` [Galunisertib] (top concentration 1000 nM) was tested, and the “selective drug sensitivity score” value was 0. With `COc1cc2c(N3CCN(C(=O)Nc4ccc(OC(C)C)cc4)CC3)ncnc2cc1OCCCN1CCCCC1` [Tandutinib] (top concentration 1000 nM) the “selective drug sensitivity score” value was 0. With `Cc1c(F)cc(C(=O)NC2CC2)cc1-c1ccc(C(=O)NCC(C)(C)C)cn1` [Losmapimod] (top concentration 10000 nM) the “selective drug sensitivity score” value was -0.18. With `Nc1nc(N)c2nc(-c3cccc(O)c3)c(-c3cccc(O)c3)nc2n1` [TG100-115] (top concentration 10000 nM) the “selective drug sensitivity score” value was 3. With `C[C@]12CC[C@@H]3c4ccc(O)cc4C[C@@H](CCCCCCCCC[S+]([O-])CCCC(F)(F)C(F)(F)F)[C@H]3[C@@H]1CC[C@@H]2O` (stereo not given in full) [Fulvestrant] (top concentration 1000 nM) the “selective drug sensitivity score” value was 2.3. `O=C(Nc1cccnc1)N1CCC(Cc2cccc(Oc3ccc(C(F)(F)F)cn3)c2)CC1` [PF-3845] (top concentration 10000 nM) was tested, and the “selective drug sensitivity score” value was -0.94. In the case of `COc1cc2c(cc1OCCCN1CCCC1)N=C(N)C21CCC1` [A-366] (top concentration 25000 nM), the “selective drug sensitivity score” value is reported as -1.84. For `Oc1ncnc2[nH]ncc12` [Allopurinol] (top concentration 10000 nM), the “selective drug sensitivity score” value was -0.64. For `CC(C)n1cnc2c(NCCc3ccc(O)cc3)nc(-c3csc4ccccc34)nc21` [StemRegenin_1] (top concentration 10000 nM), the “selective drug sensitivity score” value was -1.8. With `C#Cc1cccc(Nc2ncnc3cc4c(cc23)OCCOCCOCCO4)c1` [Icotinib] (top concentration 10000 nM) the “selective drug sensitivity score” value was 7.5. For `CN[C@@H](C)C(=O)N[C@H]1CN(C(=O)CC(C)C)CC[C@H]2CC[C@@H](C(=O)NC(c3ccccc3)c3ccccc3)N2C1=O` [AT-406] (top concentration 10000 nM), the “selective drug sensitivity score” value was 6.54. In the case of `CC(C)(O)CC(=O)NCCn1ccc2ncnc(Nc3ccc(Oc4cccc(C(F)(F)F)c4)c(Cl)c3)c21` [TAK-285] (top concentration 2500 nM), the “selective drug sensitivity score” value is reported as 3.1. `COc1cc(C)[nH]c(=O)c1CNC(=O)c1c(C)n([C@H](C)C2CCOCC2)c2ccccc12` [CPI-360] (top concentration 10000 nM) was tested, and the “selective drug sensitivity score” value was 0. With `Cc1cc2c(C(=O)NC[C@H](C)c3ccccc3)c(O)c(O)cc2c(O)c1-c1c(C)cc2c(C(=O)NC[C@H](C)c3ccccc3)c(O)c(O)cc2c1O` [Sabutoclax] (top concentration 25000 nM) the “selective drug sensitivity score” value was -7.42. In the case of `CC(C)(C)C[C@@H]1N[C@@H](C(=O)N[C@H]2CC[C@H](O)CC2)[C@H](c2cccc(Cl)c2F)[C@]12C(=O)Nc1cc(Cl)ccc12` (top concentration 10000 nM), the “selective drug sensitivity score” value is reported as 9.16. With `C[C@@H]1C[C@H]2[C@@H]3CCC4=CC(=O)C=C[C@]4(C)[C@@]3(F)[C@@H](O)C[C@]2(C)[C@@]1(O)C(=O)CO` [Dexamethasone] (top concentration 10000 nM) the “selective drug sensitivity score” value was 14.9.
